Data taken from patent publication US20110195979A1, “COMPOUNDS FOR THE TREATMENT AND PREVENTION OF INFLUENZA” (priority 2010, published 2011).

Legend:
Influenza H1N1 virus = assay: Viral cytopathic effect (CPE) assay; type: cell-based, Influenza A (H1N1); conditions: Influenza A virus, H1N1, MDCK, 72 h, read-out: CPE_EC50
Protocol: Cells and viruses. Madin-Darby canine kidney cell (MDCK) was purchased from American type culture collection (ATCC) and was maintained in minimal essential medium (MEM) containing 10% fetal bovine serum and antibiotics. Influenza A/Weiss/43 (H1N1), A/PR/8/34 (H1N1), and A/Hongkong/8/68 (H3N2) were purchased from ATCC and propagated in 10-day-old embryonated chicken eggs at 37° C. Virus was harvested 48 h after inoculation as pooled allantoic fluid. After a brief centrifugation (3,000 rpm at room temperature for 20 min) and virus titer measurement by a hemagglutination test, virus was aliquoted and stored at a −80° C. freezer.
Viral cytopathic effect (CPE) assay: To measure anti-influenza activity of compounds, MDCK cells were seeded into 96-well plates at a density of 5,000 cells per well. Next day, compounds were serially half-log diluted with Gibco SFM containing trypsin. Compounds and 50 pfu of virus were added into corresponding wells to make m.o.i at 0.01 and a final trypsin concentration of 2.5 μg/ml. The testing plates also contained medium control, cell control, virus control, and compound toxicity control. After a 3-day treatment, cell viability was measured with a MTT (3-(4,5-dimethylthiazol-2-yl)-2,5-diphenyltetrazolium bromide) method. Briefly, 20 μl of MTT diluted in culture medium was added into each wells and incubated at 37° C. for 4 hours. Reduced MTT (formazan) was extracted with acidic isopropanol and absorbance at wavelengths of 570 nm and 630 nm (OD570 and OD630) was read on a microtiter plate reader. After subtraction of background OD values, dose response curves of half-log concentration vs. percent protection were generated, on which half maximal effective concentration (EC50) and half maximal toxic concentration (CC50) were calculated.

MDCK cells = assay: in vitro; conditions: dog, Cytotoxicy IC50

| SMILES | EC50 (Influenza H1N1 virus) | IC50 at 3 day (MDCK cells) |
| --- | --- | --- |
| CC1(C)CC(O)CC(C)(CNc2ncccc2C(F)(F)F)C1 (stereo not drawn) [Example IIIa-5, (cis-1,5)-3,3,5-Trimethyl-5-[(3-trifluoromethyl-pyridin-2-ylamino)-methyl]-cyclohexanol] | < 159 nM | 22100 nM |
| CC1(C)CC(O)CC(C)(CNc2cc(S(N)(=O)=O)ccn2)C1 (stereo not drawn) [Example IIIa-8, 2-[((cis-1,5)-5-Hydroxy-1,3,3-trimethyl-cyclohexylmethyl)-amino]-pyridine-4-sulfonic acid amide] | 980 nM | > 100000 nM |
| CC1(C)CC(O)CC(C)(CNc2nccc(C(F)(F)F)n2)C1 (stereo not drawn) [Example IIIa-10, (cis-1,5)-3,3,5-Trimethyl-5-[(4-trifluoromethyl-pyrimidin-2-ylamino)-methyl]-cyclohexanol] | 120 nM | 47800 nM |
| COc1ccnc(NCC2(C)CC(O)CC(C)(C)C2)n1 (stereo not drawn) [Example IIIa-11, (cis-1,3)-3-[(4-Methoxy-pyrimidin-2-ylamino)-methyl]-3,5,5-trimethyl-cyclohexanol] | 1500 nM | > 50000 nM |
| Cc1cc(C)nc(NCC2(C)CC(O)CC(C)(C)C2)n1 (stereo not drawn) [Example IIIa-13, (cis-1,3)-3-[(4,6-Dimethyl-pyrimidin-2-ylamino)-methyl]-3,5,5-trimethyl-cyclohexanol] | 1370 nM | > 100000 nM |
| CC1(C)CC(O)CC(C)(CNc2cncc(Cl)n2)C1 (stereo not drawn) [Example IIIb-1, (cis-1,3)-3-[(6-Chloro-pyrazin-2-ylamino)-methyl]-3,5,5-trimethyl-cyclohexanol] | 4120 nM | > 50000 nM |
| CC1(C)CC(O)CC(C)(CNc2nc3ccccc3o2)C1 (stereo not drawn) [Example IIIc-1, (cis-1,3)-3-(Benzoxazol-2-ylaminomethyl)-3,5,5-trimethyl-cyclohexanol] | 1420 nM | 83000 nM |
| CC1(C)CC(F)(F)CC(C)(CNc2nc3ccccc3o2)C1 (centres unmarked) [Example IIIc-2, Benzoxazol-2-yl-(3,3-difluoro-1,5,5-trimethyl-cyclohexylmethyl)-amine] | 3360 nM | 10900 nM |
| COC1CC(C)(C)CC(C)(CNc2nc3ccccc3o2)C1 (stereo not drawn) [Example IIIc-3, Benzoxazol-2-yl-((cis-1,5)-5-methoxy-1,3,3-trimethyl-cyclohexylmethyl)-amine] | 7430 nM | > 50000 nM |
| CC1(C)CC(O)CC(C)(CNc2noc3ccccc23)C1 (stereo not drawn) [Example IIId-1, (cis-1,3)-3-(Benzo[d]isoxazol-3-ylaminomethyl)-3,5,5-trimethyl-cyclohexanol] | 400 nM | > 50000 nM |
| CC1(C)CC(O)CC(C)(CNc2nccc3ccccc23)C1 (stereo not drawn) [Example IIIf-1, (cis-1,3)-3-(Isoquinolin-1-ylaminomethyl)-3,5,5-trimethyl-cyclohexanol] | 2370 nM | 43700 nM |
| COc1cccc(NCC2(C)CC(O)CC(C)(C)C2)c1 (stereo not drawn) [Example IIa-8, (cis-1,3)-3-[(3-Methoxy-phenylamino)-methyl]-3,5,5-trimethyl-cyclohexanol] | 200 nM | > 50000 nM |
| CC(C)c1cccc(NCC2(C)CC(O)CC(C)(C)C2)c1 (stereo not drawn) [Example IIa-12, (cis-1,3)-3-[(3-Isopropyl-phenylamino)-methyl]-3,5,5-trimethyl-cyclohexanol] | 90 nM | 6680 nM |
| CC1(C)CC(O)CC(C)(CNc2cc(F)cc(C(F)(F)F)c2)C1 (stereo not drawn) [Example IIa-17, (cis-1,3)-3-[(3-Fluoro-5-trifluoromethyl-phenylamino)-methyl]-3,5,5-trimethyl-cyclohexanol] | 18 nM | 3660 nM |
| Cc1cc(Cl)cc(NCC2(C)CC(O)CC(C)(C)C2)c1 (stereo not drawn) [Example IIa-18, (cis-1,3)-3-[(3-Chloro-5-methyl-phenylamino)-methyl]-3,5,5-trimethyl-cyclohexanol] | 25 nM | > 3160 nM |
| CC1(C)CC(O)CC(C)(CNc2cc(Cl)cc(Cl)c2)C1 (stereo not drawn) [Example IIa-19, (cis-1,3)-3-[(3,5-Dichloro-phenylamino)-methyl]-3,5,5-trimethyl-cyclohexanol] | 32 nM | 7190 nM |
| CC1(C)CC(O)CC(C)(CNc2cc(Br)cc(C(F)(F)F)c2)C1 (stereo not drawn) [Example IIa-21, (cis-1,3)-3-[(3-Bromo-5-trifluoromethyl-phenylamino)-methyl]-3,5,5-trimethyl-cyclohexanol] | 58 nM | > 3160 nM |
| CC1(C)CC(O)CC(C)(CNc2cc(F)cc(C#N)c2)C1 (stereo not drawn) [Example IIa-22, 3-Fluoro-5-[((cis-1,5)-5-hydroxy-1,3,3-trimethyl-cyclohexylmethyl)-amino]-benzonitrile] | 50 nM | 23900 nM |
| CC1(C)CC(O)CC(C)(CNc2cc(C#N)cc(C(F)(F)F)c2)C1 (stereo not drawn) [Example IIa-24, 3-[((cis-1,5)-5-Hydroxy-1,3,3-trimethyl-cyclohexylmethyl)-amino]-5-trifluoromethyl-benzonitrile] | 40 nM | 13200 nM |
| CC1(C)CC(O)CC(C)(CNc2cc(C(F)(F)F)cc(C(F)(F)F)c2)C1 (stereo not drawn) [Example IIa-25, (cis-1,3)-3-[(3,5-Bis-trifluoromethyl-phenylamino)-methyl]-3,5,5-trimethyl-cyclohexanol] | 95 nM | 2830 nM |
| CC1(C)CC(O)CC(C)(CNc2ccc(Cl)c(Cl)c2)C1 (stereo not drawn) [Example IIa-27, (cis-1,3)-3-[(3,4-Dichloro-phenylamino)-methyl]-3,5,5-trimethyl-cyclohexanol] | 68 nM | 2490 nM |
| CN(CC1(C)CC(O)CC(C)(C)C1)c1cccc(Cl)c1 (stereo not drawn) [Example IIb-1, (cis-1,3)-3-{[(3-Chloro-phenyl)-methyl-amino]-methyl}-3,5,5-trimethyl-cyclohexanol] | 600 nM | 7580 nM |
| CC1(C)CCCC(C)(CNc2cc(F)cc(C(F)(F)F)c2)C1 (centres unmarked) [Example IIc-1, (3-Fluoro-5-trifluoromethyl-phenyl)-(1,3,3-trimethyl-cyclohexylmethyl)-amine] | 237 nM | 2320 nM |
| CC(=O)OC1CC(C)(C)CC(C)(CNc2ccccc2)C1 (stereo not drawn) [Example IId-1, Acetic acid (cis-1,5)-3,3,5-trimethyl-5-phenylaminomethyl-cyclohexyl ester] | 492 nM | 64400 nM |
| CC1(C)CC(F)(F)CC(C)(CNc2cc(F)cc(C(F)(F)F)c2)C1 (centres unmarked) [Example IIe-1, (3,3-Difluoro-1,5,5-trimethyl-cyclohexylmethyl)-(3-fluoro-5-trifluoromethyl-phenyl)-amine] | 264 nM | > 3160 nM |
| COC1CC(C)(C)CC(C)(CNc2cc(F)cc(C(F)(F)F)c2)C1 (stereo not drawn) [Example IIf-1, (3-Fluoro-5-trifluoromethyl-phenyl)-((cis-1,5)-5-methoxy-1,3,3-trimethyl-cyclohexylmethyl)-amine] | 129 nM | > 3160 nM |
| CC1(C)CC(C)(O)CC(C)(CNc2cc(F)cc(C(F)(F)F)c2)C1 (stereo not drawn) [Example IIg-1, (cis-1,3)-3-[(3-Fluoro-5-trifluoromethyl-phenylamino)-methyl]-1,3,5,5-tetramethyl-cyclohexanol] | 89 nM | > 3160 nM |
| CN(C)C1CC(C)(C)CC(C)(CNc2cc(F)cc(C(F)(F)F)c2)C1 (stereo not drawn) [Example IIh-1, ((cis-1,5)-5-Dimethylamino-1,3,3-trimethyl-cyclohexylmethyl)-(3-fluoro-5-trifluoromethyl-phenyl)-amine] | 1700 nM | 8390 nM |
